Several values for one entry are separate records, joined by “and”; a condition that tells them apart may be missing. Equal values may be shown once.
Target: (recombinant) catalytic domain of human Bub1 (amino acids 704-1085) (Homo sapiens (Human), UniProt O43683)
Assay: Bub1 kinase assay (TR-FRET)
Assay type: biochemical
Conditions: ATP 10 μM final, peptide substrate 1 μM final, 60 min at 22° C., read-out: Biological Assay: Bub1 kinase assay median IC50
Procedure, shortened: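 Compounds were serially diluted 1:3.4 from 2 mM DMSO stocks and incubated with the enzyme reaction for 60 min at 22° C. The reaction was stopped with EDTA, and biotinylated peptide phosphorylation was read by TR-FRET using Eu anti-mouse IgG, anti-phosphoserine antibody and streptavidin-XL665. IC50 was fitted by 4-parameter logistic to inhibition normalized to no-inhibitor and no-enzyme controls.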

(recombinant) catalytic domain of human Bub1 (amino acids 704-1085), sequence (O43683 704-1085): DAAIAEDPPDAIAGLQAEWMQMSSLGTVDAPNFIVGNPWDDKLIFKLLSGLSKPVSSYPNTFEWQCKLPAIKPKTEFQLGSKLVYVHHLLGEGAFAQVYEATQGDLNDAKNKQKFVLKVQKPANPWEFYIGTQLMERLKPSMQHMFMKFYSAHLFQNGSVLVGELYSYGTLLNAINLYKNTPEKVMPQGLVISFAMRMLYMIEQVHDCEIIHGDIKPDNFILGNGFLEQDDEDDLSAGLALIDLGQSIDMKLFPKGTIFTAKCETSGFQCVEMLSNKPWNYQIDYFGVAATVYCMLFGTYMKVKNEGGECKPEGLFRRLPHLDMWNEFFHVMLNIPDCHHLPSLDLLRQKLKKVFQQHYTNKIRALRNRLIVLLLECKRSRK

| IC50 | SMILES |
| --- | --- |
| 40.5 nM | CC1(C)CC(=O)c2c([nH]c(-c3ccnc(N)n3)c2Nc2ccccc2)C1 [Example 223, 2-(2-aminopyrimidin-4-yl)-6,6-dimethyl-3-(phenylamino)-1,5,6,7-tetrahydro-4H-indol-4-one] |
| 9.55 nM | CC1(C)CC(=O)c2c([nH]c(-c3ccnc(NC(=O)c4ccc(F)cc4)c3)c2Nc2ccccc2)C1 [Example 267, N-{4-[6,6-dimethyl-4-oxo-3-(phenylamino)-4,5,6,7-tetrahydro-1H-indol-2-yl]pyridin-2-yl}-4-fluorobenzamide] |
| 1710 nM | CC1(C)CC(=O)c2c([nH]c(-c3ccncc3)c2Nc2cccc(C(O)C(F)(F)F)c2)C1 (centres unmarked) [Example 155, 6,6-dimethyl-2-(pyridin-4-yl)-3-{[3-(2,2,2-trifluoro-1-hydroxyethyl)phenyl]amino}-1,5,6,7-tetrahydro-4H-indol-4-one] |
| 16.4 nM and 7.55 nM | O=C1CCCc2[nH]c(-c3ccnc(NC(=O)C4C[C@@H]4F)c3)c(Nc3ccccc3)c21 (mixture of isomers) [Example 249, rel-(R,S/S,R)-2-fluoro-N-{4-[4-oxo-3-(phenylamino)-4,5,6,7-tetrahydro-1H-indol-2-yl]pyridin-2-yl}cyclopropanecarboxamide] |
| 6.57 nM | Cc1cc(COCC(=O)Nc2cc(-c3[nH]c4c(c3Nc3ccccc3)C(=O)CCC4)ccn2)no1 [Example 354, 2-[(5-methyl-1,2-oxazol-3-yl)methoxy]-N-{4-[4-oxo-3-(phenylamino)-4,5,6,7-tetrahydro-1H-indol-2-yl]pyridin-2-yl}acetamide] |
| 15.9 nM | CC1(C)CC(=O)c2c([nH]c(-c3ccncc3)c2Nc2cccc(Cl)c2)C1 [Example 4, 6,6-dimethyl-3-[(3-chlorophenyl)amino]-2-(pyridin-4-yl)-1,5,6,7-tetrahydro-4H-indol-4-one] |
| 104 nM | CCCOc1cccc(Nc2c(-c3ccncc3)[nH]c3c2C(=O)CC(C)(C)C3)c1 [Example 108, 6,6-dimethyl-3-[(3-propoxyphenyl)amino]-2-(pyridin-4-yl)-1,5,6,7-tetrahydro-4H-indol-4-one] |
| 7.12 nM | COc1ccc(COCC(=O)Nc2cc(-c3[nH]c4c(c3Nc3ccccc3)C(=O)CCC4)ccn2)cc1 [Example 342, 2-[(4-methoxybenzyl)oxy]-N-{4-[4-oxo-3-(phenylamino)-4,5,6,7-tetrahydro-1H-indol-2-yl]pyridin-2-yl}acetamide] |
